Test [1] concerns ABIL (ammonia-binding liquid inoculum), nitrifying microbial enrichment containing both AOA and AOB. Description: Nitrification inhibition assay on ABIL (ammonium consumption). Conditions: 10 µM compound; structural variants outside formula (I); read-out: Relative nitrification (%) by ABIL treated with 10 µM compound. The test is classed as cell-based.
For test [2], the system named is Nitrososphaera viennensis. Description: Nitrification inhibition assay on Nitrososphaera viennensis (nitrite, Griess). The format is cell-based, Nitrososphaera viennensis EN76T. Conditions: Nitrososphaera viennensis; 2.5 µM compound; structural variants outside formula (I); read-out: Relative nitrification (%) by Nitrososphaera viennensis treated with 2.5 µM compound. Put shortly:
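N. viennensis EN76T cultures in FWM (pH 7.5, NH4Cl-supplemented), 5× concentrated, treated with compounds at 2.5 µM final (0.25% DMSO) and incubated 24 h at 42 °C. Nitrite measured by Griess absorbance at 540 nm against a standard curve. Relative nitrification normalized between DMSO (no compound) and 100 µM PTIO controls.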

In the case of `COC(C)(C)c1noc(Cc2n[nH]c3ccccc23)n1` [Example 125], in test [1], the activity at 10 µM is 100%. The activity at 2.5 µM in test [2] amounted to 97%.

Turning to `CSCC(=O)Nc1ccc2[nH]ncc2c1` [Example 126], the activity at 10 µM in test [1] was 100%. Further, the activity at 2.5 µM in test [2] is 100%.

With `CCC(CC)C(CNC(=O)c1n[nH]c2ccccc12)N1CCOCC1` (stereo not drawn) [Example 127], the activity at 10 µM in test [1] came to 100%. Moreover, the activity at 2.5 µM in test [2] is 100%.

For `COCCCCCNC(=O)Nc1ccc2[nH]ncc2c1` [Example 128], the activity at 10 µM in test [1] amounted to 100%. Also, in test [2], the activity at 2.5 µM was determined as 100%.

With `O=C(O)CC1(CC(=O)Nc2ccc3cn[nH]c3c2)CCCCC1` [Example 129], the activity at 10 µM in test [1] was 100%. Further, the activity at 2.5 µM in test [2] is 100%.

Regarding `c1cc(CNCCc2nc(C3CC3)cs2)c2[nH]ncc2c1` [Example 130], the activity at 10 µM in test [1] stood at 100%. For the same compound, the activity at 2.5 µM in test [2] was 94%.

With `O=C(Nc1cccc2cn[nH]c12)c1csc(-c2ccccc2)n1` [Example 131], the activity at 10 µM in test [1] came to 100%. In test [2], the activity at 2.5 µM was found to be 100%.

`O=C(NC1CCc2ccccc21)c1n[nH]c2ccccc12` (stereo not drawn) [Example 132]: in test [1], the activity at 10 µM turned out to be 100%. Moreover, in test [2], the activity at 2.5 µM is 97%.

Take `CC(C)CC(CNC(=O)c1n[nH]c2ccccc12)N1CCOCC1` (stereo not drawn) [Example 133]: the activity at 10 µM in test [1] stood at 100%. Moreover, the activity at 2.5 µM in test [2] was found to be 100%.

As to `COC1(C(=O)Nc2ccc(-n3ncc4ccccc43)cc2)CCOC1` (stereo not drawn) [Example 134], the activity at 10 µM in test [1] worked out at 100%. For the same compound, the activity at 2.5 µM in test [2] worked out at 100%.

In the case of `CS(=O)(=O)c1ccc(-c2noc(-c3cccc4[nH]ncc34)n2)cc1` [Example 135], the activity at 10 µM in test [1] worked out at 100%. Besides, in test [2], the activity at 2.5 µM came to 100%.

With `O=C(NCCCSc1ccccc1)c1n[nH]c2ccccc12` [Example 136], the activity at 10 µM in test [1] is 100%. For the same compound, the activity at 2.5 µM in test [2] came to 96%.

As to `O=C(Nc1ccc(C(=O)Nc2cccc3cn[nH]c23)cc1)c1ccccc1` [Example 137], the activity at 10 µM in test [1] is 100%. For the same compound, the activity at 2.5 µM in test [2] was 98%.

With `CC(NC(=O)C1(NC(=O)c2ccc3[nH]ncc3c2)CCCC1)C1CC1` (stereo not drawn) [Example 138], the activity at 10 µM in test [1] came out at 100%. Further, in test [2], the activity at 2.5 µM came out at 100%.

`O=S(=O)(Nc1n[nH]c2ccccc12)c1ccccc1C(F)(F)F` [Example 139]: the activity at 10 µM in test [1] stood at 100%. Besides, the activity at 2.5 µM in test [2] was found to be 97%.

Take `CC(C)n1ncc2ccc(NC(=O)NC3CCN(C)C3=O)cc21` (stereo not drawn) [Example 140]: in test [1], the activity at 10 µM worked out at 100%. In addition, in test [2], the activity at 2.5 µM turned out to be 100%.

As to `O=C(c1n[nH]c2ccccc12)N1CCc2ccc(F)cc21` [Example 141], in test [1], the activity at 10 µM was found to be 100%. For the same compound, the activity at 2.5 µM in test [2] turned out to be 93%.

As for `O=C(NCC1CCCO1)c1n[nH]c2ccc(Br)cc12` (stereo not drawn) [Example 142], the activity at 10 µM in test [1] is 100%. Also, the activity at 2.5 µM in test [2] was 100%.

On to `CC(CNC(=O)c1cccc2cn[nH]c12)CC1(C)OCCO1` (stereo not drawn) [Example 143], for which the activity at 10 µM in test [1] is 100%. Further, the activity at 2.5 µM in test [2] came out at 100%.

For `COCCn1ncc2ccc(NS(=O)(=O)c3ccc4c(c3)CCC4)cc21` [Example 144], in test [1], the activity at 10 µM was 100%. For the same compound, in test [2], the activity at 2.5 µM came to 100%.

As for `O=C(Nc1cccc(/C=C/c2ccccn2)c1)c1n[nH]c2ccccc12` [Example 145], in test [1], the activity at 10 µM amounted to 100%. Also, the activity at 2.5 µM in test [2] stood at 96%.

As for `O=C(NCCCCc1ccccc1)c1n[nH]c2ccccc12` [Example 146], in test [1], the activity at 10 µM is 100%. Further, the activity at 2.5 µM in test [2] is 96%.

Turning to `O=C(NCc1ccc(F)cc1C(F)(F)F)c1cccc2cn[nH]c12` [Example 147], the activity at 10 µM in test [1] came to 100%. Further, the activity at 2.5 µM in test [2] is 92%.

Take `Cc1ccccc1OCCN(C)C(=O)c1n[nH]c2ccccc12` [Example 148]: the activity at 10 µM in test [1] was 100%. Further, the activity at 2.5 µM in test [2] worked out at 100%.

Source of the values: patent publication US20230357099A1, “PYRAZOLO [3,4-B] PYRIDINE-4-CARBOXAMIDE NITRIFICATION INHIBITOR” (EUROCHEM ANTWERPTEN, priority 2020, published 2023).
